Assay results reported in patent publication US20250188085A1, “COMPOSITIONS AND METHODS FOR INHIBITION OF RAS” (THERAS, INC., priority 2022, published 2025).

Columns and labels:
[1] = biological target: T1, GppNHp-loaded KRAS4b (amino acids 1-169) G12C/C118S protein (Homo sapiens, UniProt P01116, C118S/G12C); assay: Covalent cysteine 12 modification by MALDI-TOF MS, GppNHp-loaded KRAS G12C; format: binding; settings: 15 minutes reaction time point
T1 construct: KRAS4b (amino acids 1-169) G12C/C118S protein; made in house
Procedure, shortened: (§1)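 KRAS4b 1-169 G12C/C118S loaded with GDP, GppNHp or GTP was used at 1 μM in 20 mM HEPES, 150 mM NaCl, 1 mM MgCl2, pH 7.3, and incubated with compound (5 mM DMSO stock) at room temperature in the dark. % modification at 15 min is adduct peak height over total protein peak heights by linear-mode MALDI-TOF.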

pERK in NCI-H358 cells = assay: Cell-based pERK HTRF assay; settings: Homo sapiens, NCI-H358, 0.5 h, 30 min incubation, read-out: pERK in NCI-H358 cell inhibition IC50
Procedure, shortened: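 Cells seeded at 4×10^4/well in RPMI with 10% FBS, then next day treated for 30 min with a 9-point, 3-fold series from 75 μM top concentration at 0.25% DMSO. Lysates were read for pERK by HTRF (d2/Eu cryptate antibodies) after 4–24 h at room temperature, emission at 615 nm.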

[2] = biological target: T2, GTP-loaded KRAS4b (amino acids 1-169) G12C/C118S protein (Homo sapiens, UniProt P01116, C118S/G12C); assay: Covalent cysteine 12 modification by MALDI-TOF MS, GTP-loaded KRAS G12C; format: binding; settings: 15 minutes reaction time point
T2 construct: KRAS4b (amino acids 1-169) G12C/C118S protein; made in house
Procedure, shortened: as §1

[3] = biological target: T3, GDP-loaded KRAS4b (amino acids 1-169) G12C/C118S protein (Homo sapiens, UniProt P01116, C118S/G12C); assay: Covalent cysteine 12 modification by MALDI-TOF MS, GDP-loaded KRAS G12C; format: binding; settings: 15 minutes reaction time point
T3 construct: KRAS4b (amino acids 1-169) G12C/C118S protein; made in house
Procedure, shortened: as §1

[4] = biological target: T4, Avi-KRAS G12C (1-169) GppNHp/RAF1 RBD-3×FLAG (52-151) (Homo sapiens, UniProt P01116, G12C); assay: Raf1 RBD-KRAS G12C-GppNHp disruption (protein:protein interaction HTRF assay); format: biochemical
T4 construct: Avi-KRAS G12C (1-169) GppNHp/RAF1 RBD-3×FLAG (52-151)
Procedure, shortened: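 HTRF measuring disruption of 50 nM Avi-KRAS G12C (1-169) loaded with GppNHp binding RAF1 RBD-3×FLAG (52-151), in pH 7.5 Tris buffer with 5 mM MgCl2, 0.1% BSA, 10% DMSO. KRAS preincubated with compound 1 h, then RBD 1 h, then detection reagents 1 h, all at room temperature. Compound titration 30-0.02 μM; activity expressed as percent of DMSO control.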

SMILES	GppNHp-KRAS G12C percent of modification [1]	IC50 (pERK in NCI-H358 cells)	GTP-KRAS G12C percent of modification [2]	GDP-KRAS G12C percent of modification [3]	IC50 [4]
C=CC(=O)N1CC[C@@H](Oc2nc(N3CC(N4CC5(CC5)C4)C3)nc3c(F)c(-c4ccc(F)c5sc(N)c(C#N)c45)ncc23)C1 [Compound 87]	C (10%≤modification <50%)	100 to 1000 nM	D (percent of modification <10%)	A (percent of modification ≥70%)	500 to 5000 nM
C=CC(=O)N1CC[C@@H](Oc2nc(OC[C@@]34CCCN3C[C@H](F)C4)nc3c(F)c(-c4ccc(F)c5sc(N)nc45)ccc23)[C@H]1C [Compound 88]	C (10%≤modification <50%)	100 to 1000 nM	C (10%≤modification <50%)	C (10%≤modification <50%)	≤ 500 nM
C=CC(=O)N1CC[C@@H](Oc2nc(OC[C@@]34CCCN3C[C@H](F)C4)nc3cc(-c4ccc(F)c5sc(N)c(C#N)c45)c(C(F)(F)F)nc23)[C@H]1C [Compound 91]	B (50≤percent of modification <70%)	≤ 100 nM	C (10%≤modification <50%)	A (percent of modification ≥70%)	≤ 500 nM
C=CC(=O)N1C[C@@H](F)[C@@H](Oc2nc(OC[C@@]34CCCN3C[C@H](F)C4)nc3c(F)c(-c4ccc(F)c5sc(N)c(C#N)c45)c(Cl)cc23)C1 [Compound 93]	A (percent of modification ≥70%)	≤ 100 nM	B (50≤percent of modification <70%)	A (percent of modification ≥70%)	≤ 500 nM
C=CC(=O)N1CC[C@@H](Oc2nc(OC[C@@]34CCCN3C[C@H](F)C4)nc3c(F)c(-c4ccc(F)c5sc(N)c(C#N)c45)c(Cl)cc23)[C@H]1C [Compound 94]	A (percent of modification ≥70%)	≤ 100 nM	B (50≤percent of modification <70%)	A (percent of modification ≥70%)	≤ 500 nM
C=CC(=O)N1CC[C@@H](Oc2nc(OC[C@@]34CCCN3C[C@H](F)C4)nc3c(F)c(-c4ccc(F)c5sc(N)c(C#N)c45)ccc23)[C@H]1COC [Compound 97]	A (percent of modification ≥70%)	≤ 100 nM	A (percent of modification ≥70%)	A (percent of modification ≥70%)	≤ 500 nM
C=CC(=O)N1CC[C@@H](Oc2nc(OC[C@@]34CCCN3C[C@H](F)C4)nc3cc(-c4ccc(F)c5sc(N)c(C#N)c45)c(C(F)(F)F)cc23)[C@H]1C [Compound 98]	B (50≤percent of modification <70%)	100 to 1000 nM	C (10%≤modification <50%)	B (50≤percent of modification <70%)	≤ 500 nM
C=CC(=O)N1CC[C@@H](Oc2nc(OC[C@@]34CCCN3C[C@H](OC)C4)nc3c(F)c(-c4ccc(F)c5sc(N)c(C#N)c45)c(C(F)(F)F)cc23)[C@H]1C [Compound 99]	B (50≤percent of modification <70%)	≤ 100 nM	B (50≤percent of modification <70%)	B (50≤percent of modification <70%)	≤ 500 nM
C=CC(=O)N1CC[C@@H](Oc2nc(OCC34CCCN3CCC4)nc3c(F)c(-c4ccc(F)c5sc(N)c(C#N)c45)c(C(F)(F)F)cc23)[C@H]1C [Compound 100]	C (10%≤modification <50%)	100 to 1000 nM	C (10%≤modification <50%)	B (50≤percent of modification <70%)	≤ 500 nM
C=CC(=O)N1CC[C@@H](Oc2nc(OC[C@@H]3CCCN3C)nc3c(F)c(-c4ccc(F)c5sc(N)c(C#N)c45)c(C(F)(F)F)cc23)[C@H]1C [Compound 101]	B (50≤percent of modification <70%)	≤ 100 nM	C (10%≤modification <50%)	A (percent of modification ≥70%)	≤ 500 nM
